These results are taken from patent US7041785B1, “B1-bradykinin receptor antagonists and use thereof” (Université de Sherbrooke, priority 1996, dated 2006).

Non-standard residues stand in square brackets, D forms with d. Residues, ends and D or L forms follow the SMILES beside them. Tyr(3,5-I2) = N[C@@H](Cc1cc(I)c(O)c(I)c1)C(=O)O; Oic = O=C(O)[C@@H]1C[C@@H]2CCCC[C@@H]2N1; 2Nal = N[C@@H](Cc1ccc2ccccc2c1)C(=O)O; d2Nal = N[C@H](Cc1ccc2ccccc2c1)C(=O)O; Hyp = O=C(O)[C@@H]1C[C@@H](O)CN1; Tic = O=C(O)[C@@H]1Cc2ccccc2CN1; dTic = O=C(O)[C@H]1Cc2ccccc2CN1; 2Thi = N[C@@H](Cc1cccs1)C(=O)O; Ahx = NCCCCCC(=O)O; Sar = CNCC(=O)O

One experiment deals with T1, human B2 receptor (Homo sapiens, UniProt P30411).
T1 construct: Helical strips of HUV were prepared according to Gobeil et al; from tissue; host or cells: human umbilical vein helical strips
T1 sequence (P30411 1-391): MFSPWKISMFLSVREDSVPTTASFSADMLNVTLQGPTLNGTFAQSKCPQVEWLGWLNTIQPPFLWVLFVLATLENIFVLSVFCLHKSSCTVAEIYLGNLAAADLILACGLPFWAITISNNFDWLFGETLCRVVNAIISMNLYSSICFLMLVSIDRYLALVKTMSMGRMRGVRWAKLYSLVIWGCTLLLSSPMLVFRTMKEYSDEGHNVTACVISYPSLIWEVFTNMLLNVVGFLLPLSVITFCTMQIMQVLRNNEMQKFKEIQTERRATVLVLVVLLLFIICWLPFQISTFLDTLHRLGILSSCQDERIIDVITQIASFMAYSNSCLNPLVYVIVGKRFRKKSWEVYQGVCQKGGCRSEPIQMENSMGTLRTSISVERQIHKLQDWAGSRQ
Put plainly: Human umbilical vein bioassay in presence of Lys(Leu8)desArg9BK, B2 receptor. Type of experiment: cell-based. The conditions noted are these: vs BK, Lys(Leu8)desArg9BK 1 μmol/L present. The source says: Tissues were taken from New Zealand white rabbits (1.5–2.5 kg) and Dunken Hartley guinea pigs (250–350 g) of either sex, killed by stunning and exsanguination. Umbilical cords were taken from healthy women 22–40 years old after spontaneous delivery at term. The rabbit jugular vein (RbJV), the guinea pig ileum (GPI), two preparations containing B2 receptors, the rabbit aorta (RbA) (B1 receptor) and the human umbilical vein (HUV), a mixed preparation containing both B1 and B2 receptors^10, were used. Helical strips of RbJV treated with 1 μmol/L of captopril to avoid peptide degradation by the angiotensin-converting enzyme (ACE), alias kininase II were prepared according to Gaudreau et al.^11 Helical strips of RbA devoid of endothelium were prepared according to Furchgott and Bhadrakom^12. Longitudinal segments of GPI were prepared with the procedure described by Rang^13. Helical strips of HUV were prepared according to Gobeil et al.^10. The tissues were suspended in 10-ml organ baths containing warm (37EC), oxygenated (95% O2–5% CO2) Krebs solution of the following composition in mmol/L; NaCl: 118.1; KCl: 4.7; CaCl26H2O: 2.5; KH2PO4: 1.2; MgSO47H2O: 1.18; NaHCO3: 25.0 and D-Glucose: 5.5. The RbA and the HUV were stretched with an initial tension of 2 g, whereas the RbJV and the GPI were loaded with 0.5 g. Changes of tension produced by the various agents were measured with Grass isometric transducers (model FT 03C, Grass Instrument Co., Quincy, Mass.). […] Before testing the drugs, the tissues were allowed to equilibrate for 60–120 min during which time the tissues were repeatedly washed and the tension readjusted every 15 min.
At the beginning of each experiment, a submaximal dose of bradykinin (BK) (9 nmol/L), was applied repeatedly on the RbJV, the GPI or the HUV to ensure that tissues responded with stable contractions. […] A similar protocol was used for the HUV.
Repeated applications of a singl and double concentration of BK (on RbJV, GPI and HUV) and of desArg^9BK (RbA and HUV) were made in the absence and in presence of the various peptides to evaluate their apparent affinities as antagonists, in terms of pA2 (-log10 of the molar concentration of antagonist that reduces the effect of a double concentration of agonist to that of a single one)^14. The antagonists were applied 10 min before measuring the myotropic effects of either BK (the B2 receptor agonist) or desArg^9BK (the B1 receptor agonist). […] All kinin antagonists were initially applied to tissues at concentration of 10 μg/mL to measure their potential agonistic activities (α^E) in comparison with BK (in the B2 receptor preparations) or desArg^9BK (in the B1 receptor preparations).

The next experiment has as its target T2, human B1 receptor (Homo sapiens, UniProt P46663).
T2 sequence (P46663 1-353): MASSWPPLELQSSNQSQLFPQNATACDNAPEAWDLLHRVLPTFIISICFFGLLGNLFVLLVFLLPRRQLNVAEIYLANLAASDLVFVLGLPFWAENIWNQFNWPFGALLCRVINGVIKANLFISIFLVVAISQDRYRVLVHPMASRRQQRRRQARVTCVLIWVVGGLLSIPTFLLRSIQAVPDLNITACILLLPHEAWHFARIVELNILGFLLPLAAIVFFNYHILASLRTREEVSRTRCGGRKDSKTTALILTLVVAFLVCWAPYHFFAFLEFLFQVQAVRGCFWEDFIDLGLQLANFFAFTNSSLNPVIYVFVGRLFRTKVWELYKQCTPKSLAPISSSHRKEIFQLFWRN
Put plainly: cell-based. The conditions noted are these: for Kb: Human umbilical vein B1 receptor pA2, vs desArg9BK; for Human umbilical vein B1 receptor α^E: residual agonistic activity at 10 μg/mL. The procedure, abridged: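 Isolated rabbit jugular vein (captopril 1 μmol/L), guinea pig ileum, endothelium-free rabbit aorta and human umbilical vein, in Krebs at 37 °C, with isometric tension recorded. Agonism was tested at 10 μg/mL.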

A further experiment deals with T3, B2 receptor (Oryctolagus cuniculus, UniProt Q28642).
T3 sequence (Q28642 1-367): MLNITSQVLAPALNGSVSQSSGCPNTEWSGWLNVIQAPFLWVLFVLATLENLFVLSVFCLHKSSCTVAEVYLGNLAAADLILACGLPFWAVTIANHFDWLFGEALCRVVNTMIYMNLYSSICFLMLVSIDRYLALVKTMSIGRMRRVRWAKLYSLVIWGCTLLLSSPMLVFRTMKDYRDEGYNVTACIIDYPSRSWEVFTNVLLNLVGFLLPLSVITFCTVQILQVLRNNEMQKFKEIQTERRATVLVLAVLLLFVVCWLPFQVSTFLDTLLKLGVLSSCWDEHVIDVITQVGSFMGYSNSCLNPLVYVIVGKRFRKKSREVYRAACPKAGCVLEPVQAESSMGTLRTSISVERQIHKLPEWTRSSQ
The conditions noted are these: vs BK; captopril 1 μmol/L; Inactive = no detectable antagonistic effect at ≦ 10 μg/ml.

Consider `CC(C)C[C@H](NC(=O)[C@H]1Cc2ccccc2CN1C(=O)[C@H](CO)NC(=O)[C@H](Cc1ccccc1)NC(=O)CNC(=O)[C@@H]1CCCN1C(=O)[C@@H]1CCCN1C(=O)[C@@H](N)CCCNC(=N)N)C(=O)O` [Compound 8, (D-Tic^7, Leu^8)desArg^9BK] (H-RPPGFS[dTic]L-OH; N-terminus and C-terminus assumed), for which, at human B2 receptor, the “Human umbilical vein B2 receptor pA2” value is “Inactive”. The Kb at human B1 receptor (HOE140 400 nmol/L present) was 2750 nM. For the same molecule, at B2 receptor, the “Rb.J.V. pA2” value is reported as “Inactive”.
Turning to `CC[C@H](C)[C@H](NC(=O)[C@H]1Cc2ccccc2CN1C(=O)[C@H](CO)NC(=O)[C@H](Cc1ccccc1)NC(=O)CNC(=O)[C@@H]1CCCN1C(=O)[C@@H]1CCCN1C(=O)[C@H](CCCNC(=N)N)NC(=O)[C@H](N)CCCNC(=N)N)C(=O)O` [Compound 13, D-Arg(D-Tic^7, Ile^8)desArg^9BK] (H-[dR]RPPGFS[dTic]I-OH; N-terminus and C-terminus assumed), on human B2 receptor, the “Human umbilical vein B2 receptor pA2” value was “Inactive”. In addition, the Kb on human B1 receptor (HOE140 400 nmol/L present) was 22.9 nM.
With `CC[C@H](C)[C@H](NC(=O)[C@@H]1Cc2ccccc2CN1C(=O)[C@H](CO)NC(=O)[C@H](Cc1ccccc1)NC(=O)CNC(=O)[C@@H]1CCCN1C(=O)[C@@H]1CCCN1C(=O)[C@H](CCCNC(=N)N)NC(=O)[C@H](N)CCCNC(=N)N)C(=O)O` [Compound 14, D-Arg(L-Tic^7, Ile^8)desArg^9BK] (H-[dR]RPPGFS[Tic]I-OH; N-terminus and C-terminus assumed), the “Human umbilical vein B2 receptor pA2” value on human B2 receptor was “Inactive”. The Kb on human B1 receptor (HOE140 400 nmol/L present) is 4680 nM.
Turning to `CC(=O)N[C@@H](CCCCN)C(=O)N[C@@H](CCCNC(=N)N)C(=O)N1CCC[C@H]1C(=O)N1CCC[C@H]1C(=O)NCC(=O)N[C@@H](Cc1ccccc1)C(=O)N[C@@H](CO)C(=O)N[C@H](Cc1ccc2ccccc2c1)C(=O)N[C@@H](CC(C)C)C(=O)O` [Compound 18, AcLys(D-βNal^7, Leu^8)desArg^9BK] (Ac-KRPPGFS[d2Nal]L-OH; C-terminus assumed), the “Human umbilical vein B2 receptor pA2” value on human B2 receptor was “Inactive”. Further, the Kb on human B1 receptor (HOE140 400 nmol/L present) is 35.5 nM. In addition, the “Human umbilical vein B1 receptor α^E” value on human B1 receptor was 0.
For `CC[C@H](C)[C@H](NC(=O)[C@H](Cc1ccc2ccccc2c1)NC(=O)[C@H](CO)NC(=O)[C@H](Cc1ccccc1)NC(=O)CNC(=O)[C@@H]1CCCN1C(=O)[C@@H]1CCCN1C(=O)[C@H](CCCNC(=N)N)NC(=O)[C@H](CCCCN)NC(C)=O)C(=O)O` [Compound 20, AcLys(L-βNal^7, Ile^8)desArg^9BK] (Ac-KRPPGFS[2Nal]I-OH; C-terminus assumed), the “Human umbilical vein B2 receptor pA2” value at human B2 receptor is “Inactive”. On human B1 receptor (HOE140 400 nmol/L present), this molecule showed a Kb of 6920 nM. Also, on human B1 receptor, the “Human umbilical vein B1 receptor α^E” value is 0.
Regarding `CC(C)C[C@H](NC(=O)[C@@H](Cc1ccc2ccccc2c1)NC(=O)[C@H](CO)NC(=O)[C@H](Cc1ccccc1)NC(=O)CNC(=O)[C@@H]1CCCN1C(=O)[C@@H]1CCCN1C(=O)[C@H](CCCNC(=N)N)NC(=O)[C@H](N)CCCNC(=N)N)C(=O)O` [Compound 24, D-Arg(D-βNal^7, Leu^8)desArg^9BK] (H-[dR]RPPGFS[d2Nal]L-OH; N-terminus and C-terminus assumed), the “Human umbilical vein B2 receptor pA2” value at human B2 receptor was “Inactive”. Further, the Kb at human B1 receptor (HOE140 400 nmol/L present) is 50.1 nM.
For `CC[C@H](C)[C@H](NC(=O)[C@@H](Cc1ccc2ccccc2c1)NC(=O)[C@H](CO)NC(=O)[C@H](Cc1ccccc1)NC(=O)CNC(=O)[C@@H]1CCCN1C(=O)[C@@H]1CCCN1C(=O)[C@H](CCCNC(=N)N)NC(=O)CNC)C(=O)O` [Compound 26, Sar(D-βNal^7, Ile^8)desArg^9BK] (H-[Sar]RPPGFS[d2Nal]I-OH; N-terminus and C-terminus assumed) the same measures were “Inactive” and 47.9 nM.
Take `CC[C@H](C)[C@H](NC(=O)[C@@H](Cc1ccc2ccccc2c1)NC(=O)[C@H](CO)NC(=O)[C@H](Cc1ccccc1)NC(=O)CNC(=O)[C@@H]1CCCN1C(=O)[C@@H]1CCCN1C(=O)[C@H](CCCNC(=N)N)NC(=O)[C@H](CCCCN)NC(=O)CCCCCNC(=O)[C@H](Cc1ccc(O)cc1)NC(=O)CNC)C(=O)O` [Compound 29, SarTyrεAhxLys(D-βNal^7, Ile^8)desArg^9BK] (H-[Sar]Y[Ahx]KRPPGFS[d2Nal]I-OH; N-terminus and C-terminus assumed): the “Human umbilical vein B2 receptor pA2” value at human B2 receptor is “Inactive”. This molecule also gave a Kb on human B1 receptor (HOE140 400 nmol/L present) of 4.07 nM.
On the same counts, the results for `CC[C@H](C)[C@H](NC(=O)[C@@H](Cc1ccc2ccccc2c1)NC(=O)[C@H](CO)NC(=O)[C@H](Cc1ccccc1)NC(=O)CNC(=O)[C@@H]1CCCN1C(=O)[C@@H]1CCCN1C(=O)[C@H](CCCNC(=N)N)NC(=O)[C@H](CCCCN)NC(=O)CCCCCNC(=O)[C@H](Cc1cc(I)c(O)c(I)c1)NC(=O)CNC)C(=O)O` [Compound 30, SarTyr(3,5-I)εAhxLys(D-βNal^7, Ile^8)desArg^9BK] (H-[Sar][Tyr(3,5-I2)][Ahx]KRPPGFS[d2Nal]I-OH; N-terminus and C-terminus assumed) are “Inactive” and 4.79 nM.
Turning to `N=C(N)NCCC[C@@H](N)C(=O)N[C@@H](CCCNC(=N)N)C(=O)N1CCC[C@H]1C(=O)N1C[C@H](O)C[C@H]1C(=O)NCC(=O)N[C@@H](Cc1cccs1)C(=O)N[C@@H](CO)C(=O)N1Cc2ccccc2C[C@@H]1C(=O)N1[C@H](C(=O)O)C[C@@H]2CCCC[C@@H]21` [Compound 31, D-Arg(Hyp^3, Thi^5, D-Tic^7, Oic^8)desArg^9BK, reference compound] (H-[dR]RP[Hyp]G[2Thi]S[dTic][Oic]-OH; N-terminus and C-terminus assumed), the “Human umbilical vein B2 receptor pA2” value at human B2 receptor is recorded as “Inactive”. At human B1 receptor (HOE140 400 nmol/L present), the Kb is 51.3 nM. Moreover, on human B1 receptor (vs desArg9BK, HOE140 400 nmol/L present), the “Human umbilical vein B1 receptor pA2” value is listed as 7.29.
